These results are taken from patent US20090030024A1, “THIAZOLES AS FUNGICIDES” (priority 2005, published 2009).

Read-outs that look alike come from different tables or passages of the source.

One data set concerns Fusarium graminearum. Briefly: whole plant or invertebrate. It counts as in vivo. The note with it: in Hordeum vulgare, 96 h, read-out: efficacy.
The nature of data set [1]: logP determination by retention times (calibration with alkan-2-ones).
Another data set has as its system Leptosphaeria nodorum. Briefly: Leptosphaeria nodorum test (wheat)/protective. Type of data set: in vivo. The note with it: Parastagonospora nodorum, 240 h, protective spray, active compound concentration 1000 ppm, evaluation 10 days after inoculation, read-out: efficacy. On the procedure: Leptosphaeria Nodorum Test (Wheat)/Protective [table] […] After the spray coating has dried on, the plants are sprayed with a spore suspension of Leptosphaeria nodorum. The plants remain in an incubation cabin at 20° C. and 100% relative atmospheric humidity for 48 hours. The plants are placed in a greenhouse at a temperature of about 20° C. and a relative atmospheric humidity of 80%.

Another data set deals with Phytophthora infestans. As to the kind of experiment: whole plant or invertebrate. Type of data set: in vivo. The following applies: in Solanum lycopersicum, 168 h, read-out: efficacy.

As usually defined, the chromatographic logP is lipophilicity estimated from chromatographic retention. On to `Cc1nc(C(C)C)sc1-c1ccnc(Nc2cccc(O)c2)n1` [Example 151, 3-{[4-(2-isopropyl-4-methyl-1,3-thiazol-5-yl)pyrimidin-2-yl]amino}phenol], for which the pest or weed control at 1000 ppm in the data set with Fusarium graminearum and in the data set on Leptosphaeria nodorum was ≥ 70% in each case. In addition, the chromatographic logP in data set [1] was 2.42.

In the case of `COc1cc(Nc2nccc(-c3sc(C)nc3C)n2)cc(OC)c1OC` [Example 182, 4-(2,4-dimethyl-1,3-thiazol-5-yl)-N-(3,4,5-trimethoxyphenyl)pyrimidine-2-amine], the pest or weed control at 500 ppm in the data set with Phytophthora infestans is ≥ 70%. Further, the pest or weed control at 1000 ppm in the data set with Fusarium graminearum and in the data set on Leptosphaeria nodorum was ≥ 70% each time. This compound also showed a chromatographic logP in data set [1] of 2.1.

Consider `Cc1nc(C)c(-c2ccnc(Nc3ccccc3)n2)s1` [Example 190, 4-(2,4-dimethyl-1,3-thiazol-5-yl)-N-phenylpyrimidine-2-amine], for which the pest or weed control at 1000 ppm in the data set with Fusarium graminearum and in the data set on Leptosphaeria nodorum was ≥ 70% each time. This compound registered a chromatographic logP in data set [1] of 2.4.

As for `CCc1nc(C)c(-c2ccnc(Nc3ccc(OC)nc3)n2)s1` [Example 240, 4-(2-ethyl-4-methyl-1,3-thiazol-5-yl)-N-(6-methoxypyridin-3-yl)pyrimidine-2-amine], the pest or weed control at 1000 ppm in the data set on Fusarium graminearum and with Leptosphaeria nodorum was ≥ 70% each time. Also, in data set [1], the chromatographic logP stood at 2.33.

With `COc1cc(Nc2nccc(-c3sc(C(C)C)nc3C)n2)cc(OC)c1OC` [Example 244, 4-(2-isopropyl-4-methyl-1,3-thiazol-5-yl)-N-(3,4,5-trimethoxyphenyl)pyrimidine-2-amine], the pest or weed control at 1000 ppm in the data set with Fusarium graminearum and in the data set on Leptosphaeria nodorum was ≥ 70% each time. The compound also returned a chromatographic logP in data set [1] of 2.99.

With `COc1ccc(Nc2nccc(-c3sc(C(C)C)nc3C)n2)cn1` [Example 247, 4-(2-isopropyl-4-methyl-1,3-thiazol-5-yl)-N-(6-methoxypyridin-3-yl)pyrimidine-2-amine], the pest or weed control at 500 ppm in the data set on Phytophthora infestans is ≥ 70%. Moreover, the pest or weed control at 1000 ppm with Fusarium graminearum and in the data set with Leptosphaeria nodorum was ≥ 70% each time. The compound further registered a chromatographic logP in data set [1] of 2.76.

Turning to `Cc1nc(C(C)C)sc1-c1ccnc(Nc2ccccc2)n1` [Example 251, 4-(2-isopropyl-4-methyl-1,3-thiazol-5-yl)-N-phenylpyrimidine-2-amine], in the data set on Phytophthora infestans, the pest or weed control at 500 ppm is ≥ 70%. Also, the pest or weed control at 1000 ppm in the data set on Fusarium graminearum and in the data set with Leptosphaeria nodorum was ≥ 70% throughout. In data set [1], this compound showed a chromatographic logP of 3.55.

As to `CC(=O)Nc1ccc(Nc2nccc(-c3sc(C(C)C)nc3C)n2)cc1` [Example 461, N-(4-{[4-(2-isopropyl-4-methyl-1,3-thiazol-5-yl)pyrimidin-2-yl]amino}phenyl)acetamide], the pest or weed control at 1000 ppm in the data set with Fusarium graminearum and in the data set with Leptosphaeria nodorum was ≥ 70% in each case. The compound also registered a chromatographic logP in data set [1] (logP, * HPLC reversed-phase C18, 40° C., mobile phase 0.1% aqueous formic acid and acetonitrile, linear gradient 10% to 95% acetonitrile) of 2.15.
